Source: US20080200454A1, “CARBON-LINKED TETRAHYDRO-PYRAZOLO-PYRIDINE MODULATORS OF CATHEPSIN S” (priority 2007, published 2008)
Where two headings read alike, the source gives them in different places.

Target: Recombinant human cathepsin S (CatS) (Homo sapiens, UniProt P25774)
Assay: Recombinant human cathepsin S (CatS) inhibition assay, fluorogenic substrate Z-Valine-Valine-Arginine-AMC;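 also: Baculovirus-expressed CatS in pH 5.0 sodium acetate buffer with DTT and NaCl, fluorescence read each minute over 20 min, inhibition derived from rate slope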

Chain of Recombinant human cathepsin S (CatS) (P25774 115-331): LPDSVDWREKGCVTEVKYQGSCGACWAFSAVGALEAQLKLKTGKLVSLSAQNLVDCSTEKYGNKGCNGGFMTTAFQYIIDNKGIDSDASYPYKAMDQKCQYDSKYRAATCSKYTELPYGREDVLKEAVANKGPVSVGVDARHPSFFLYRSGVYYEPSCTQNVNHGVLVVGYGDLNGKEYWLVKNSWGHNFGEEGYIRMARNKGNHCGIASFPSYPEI

`CS(=O)(=O)N1CCc2c(c(-c3ccc(Cl)c(C#Cc4ccc(CNCc5nccs5)cc4)c3)nn2CCCN2CCOCC2)C1` [Example 456, 1-[4-({2-Chloro-5-[5-(methylsulfonyl)-1-(3-morpholin-4-ylpropyl)-4,5,6,7-tetrahydro-1H-pyrazolo[4,3-c]pyridin-3-yl]phenyl}ethynyl)phenyl]-N-(1,3-thiazol-2-ylmethyl)methanamine] was tested, and the IC50 (CatS IC50) was 120 nM.
Work on `Cn1cncc1CNCc1ccc(C#Cc2cc(-c3nn(CCCN4CCOCC4)c4c3CN(S(C)(=O)=O)CC4)ccc2Cl)cc1` [Example 457, 1-[4-({2-Chloro-5-[5-(methylsulfonyl)-1-(3-morpholin-4-ylpropyl)-4,5,6,7-tetrahydro-1H-pyrazolo[4,3-c]pyridin-3-yl]phenyl}ethynyl)phenyl]-N-[(1-methyl-1H-imidazol-5-yl)methyl]methanamine] yielded an IC50 (CatS IC50) of 90 nM.
Molecule `NC(=O)N1CCc2c(c(-c3ccc(Cl)c(C#Cc4ccc(CNCc5ccc(Cl)cc5)cc4)c3)nn2CCCN2CCCCC2)C1` [Example 458, 3-(4-Chloro-3-{[4-({[(4-chlorophenyl)methyl]amino}methyl)phenyl]ethynyl}phenyl)-1-(3-piperidin-1-ylpropyl)-1,4,6,7-tetrahydro-5H-pyrazolo[4,3-c]pyridine-5-carboxamide] has an IC50 of 60 nM.
`CC(=O)NC1CCN(CCCn2nc(-c3ccc(Cl)c(C#Cc4ccc(CNCc5ccc(Cl)cc5)cc4)c3)c3c2CCN(C(N)=O)C3)CC1` [Example 459, 1-{3-[4-(Acetylamino)piperidin-1-yl]propyl}-3-(4-chloro-3-{[4-({[(4-chlorophenyl)methyl]amino}methyl)phenyl]ethynyl}phenyl)-1,4,6,7-tetrahydro-5H-pyrazolo[4,3-c]pyridine-5-carboxamide] showed an IC50 (CatS IC50) of 20 nM.
In the case of `NC(=O)N1CCc2c(c(-c3ccc(Cl)c(C#Cc4ccc(CNCc5ccc(Cl)cc5)cc4)c3)nn2CCCN2CCN(C3CCC3)CC2)C1` [Example 460, 3-(4-Chloro-3-{[4-({[(4-chlorophenyl)methyl]amino}methyl)phenyl]ethynyl}phenyl)-1-[3-(4-cyclobutylpiperazin-1-yl)propyl]-1,4,6,7-tetrahydro-5H-pyrazolo[4,3-c]pyridine-5-carboxamide], the IC50 (CatS IC50) is reported as 170 nM.
In the case of `NC(=O)C1CCN(CCCn2nc(-c3ccc(Cl)c(C#Cc4ccc(CNCc5ccc(Cl)cc5)cc4)c3)c3c2CCN(C(N)=O)C3)CC1` [Example 461, 1-{3-[4-(Aminocarbonyl)piperidin-1-yl]propyl}-3-(4-chloro-3-{[4-({[(4-chlorophenyl)methyl]amino}methyl)phenyl]ethynyl}phenyl)-1,4,6,7-tetrahydro-5H-pyrazolo[4,3-c]pyridine-5-carboxamide], the IC50 is reported as 30 nM.
`NC(=O)N1CCc2c(c(-c3ccc(Cl)c(C#Cc4ccc(CNCc5ccc(Cl)cc5)cc4)c3)nn2CCCN2CCC3(CC2)OCCO3)C1` [Example 462, 3-(4-Chloro-3-{[4-({[(4-chlorophenyl)methyl]amino}methyl)phenyl]ethynyl}phenyl)-1-[3-(1,4-dioxa-8-azaspiro[4.5]dec-8-yl)propyl]-1,4,6,7-tetrahydro-5H-pyrazolo[4,3-c]pyridine-5-carboxamide] showed an IC50 (CatS IC50) of 50 nM.
Work on `NC(=O)N1CCc2c(c(-c3ccc(Cl)c(C#Cc4ccc(CNCc5ccc(Cl)cc5)cc4)c3)nn2CCCN2CCN(C3CC3)CC2)C1` [Example 463, 3-(4-Chloro-3-{[4-({[(4-chlorophenyl)methyl]amino}methyl)phenyl]ethynyl}phenyl)-1-[3-(4-cyclopropylpiperazin-1-yl)propyl]-1,4,6,7-tetrahydro-5H-pyrazolo[4,3-c]pyridine-5-carboxamide] yielded an IC50 (CatS IC50) of 110 nM.
`CC(C)(C)OC(=O)N1Cc2cc(C#Cc3cc(-c4nn(CCCN5CCOCC5)c5c4CN(S(C)(=O)=O)CC5)ccc3Cl)ccc2C[C@H]1C(=O)O` [Example 464, (3S)-7-({2-Chloro-5-[5-(methylsulfonyl)-1-(3-morpholin-4-ylpropyl)-4,5,6,7-tetrahydro-1H-pyrazolo[4,3-c]pyridin-3-yl]phenyl}ethynyl)-2-{[(1,1-dimethylethyl)oxy]carbonyl}-1,2,3,4-tetrahydroisoquinoline-3-carboxylic acid] was tested, and the IC50 (read-out: CatS IC50, Table 4, average of results obtained) was 630 nM.
